The assay deals with Btk (Homo sapiens, UniProt Q06187). In words: crystal structure of human Btk in complex with PLS-123 (Figure 1B); IC50 also stated; Western blot of p-Tyr223/p-Tyr551 Btk in cells. Format: binding. An excerpt: crystal structure of human Btk in complex with PLS-123 (Figure 1B); IC50 also stated; Western blot of p-Tyr223/p-Tyr551 Btk in cells on Btk | Crystal structure of the human Btk in complex with PLS-123.
For orientation: A western blot detects proteins with antibodies after separation by electrophoresis.

Usually IC50 stands for the concentration that gives 50% inhibition. Read a low IC50 as higher potency.

Chain of Btk (Q06187 2-659): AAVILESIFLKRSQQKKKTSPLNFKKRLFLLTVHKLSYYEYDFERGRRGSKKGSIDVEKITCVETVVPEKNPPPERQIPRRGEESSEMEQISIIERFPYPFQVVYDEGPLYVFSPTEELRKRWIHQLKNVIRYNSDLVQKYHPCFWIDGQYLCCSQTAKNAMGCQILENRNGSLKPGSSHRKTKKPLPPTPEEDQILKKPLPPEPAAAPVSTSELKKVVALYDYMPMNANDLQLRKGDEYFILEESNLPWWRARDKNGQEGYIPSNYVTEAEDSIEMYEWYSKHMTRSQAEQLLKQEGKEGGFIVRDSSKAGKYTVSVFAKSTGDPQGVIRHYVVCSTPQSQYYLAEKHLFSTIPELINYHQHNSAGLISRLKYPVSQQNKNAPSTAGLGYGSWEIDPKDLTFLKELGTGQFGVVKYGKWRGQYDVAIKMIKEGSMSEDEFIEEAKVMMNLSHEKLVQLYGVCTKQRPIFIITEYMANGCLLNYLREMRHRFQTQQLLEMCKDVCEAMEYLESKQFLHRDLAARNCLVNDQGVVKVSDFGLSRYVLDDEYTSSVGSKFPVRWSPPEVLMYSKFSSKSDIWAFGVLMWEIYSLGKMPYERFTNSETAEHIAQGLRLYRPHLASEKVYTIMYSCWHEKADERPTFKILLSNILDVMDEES

On to `C=CC(=O)NCC(=O)Nc1cccc(Nc2ncc(NC(=O)c3cc(NC(=O)c4cccc(C(F)(F)F)c4)ccc3C)cn2)c1` [PLS-123], for which the half-maximal inhibitory concentration (IC50) is less than 5 nM.

The record behind these values is article PMC4558140, “Irreversible dual inhibitory mode: the novel Btk inhibitor PLS-123 demonstrates promising anti-tumor activity in human B-cell lymphoma” (Oncotarget, 2015).
